Measurements from patent US6472418B1, “Non-peptide NK1 receptors antagonists” (Warner-Lambert Company, priority 1998, dated 2002).

biological target: T1, Human NK1 Receptor (Homo sapiens, UniProt P25103); assay: In Vitro Human NK1 Receptor Binding Assay ([125I]Bolton-Hunter substance P displacement, IM9 cells); details: Human lymphoma IM9 cells, [125I]Bolton-Hunter substance P (0.05-0.1 nM), 50 min at 21° C.; Table 1; read-out: NK1 binding IC50
T1 construct: endogenous in cells; host or cells: Human lymphoma IM9 cells (whole cells)
T1 sequence (P25103 whole entry): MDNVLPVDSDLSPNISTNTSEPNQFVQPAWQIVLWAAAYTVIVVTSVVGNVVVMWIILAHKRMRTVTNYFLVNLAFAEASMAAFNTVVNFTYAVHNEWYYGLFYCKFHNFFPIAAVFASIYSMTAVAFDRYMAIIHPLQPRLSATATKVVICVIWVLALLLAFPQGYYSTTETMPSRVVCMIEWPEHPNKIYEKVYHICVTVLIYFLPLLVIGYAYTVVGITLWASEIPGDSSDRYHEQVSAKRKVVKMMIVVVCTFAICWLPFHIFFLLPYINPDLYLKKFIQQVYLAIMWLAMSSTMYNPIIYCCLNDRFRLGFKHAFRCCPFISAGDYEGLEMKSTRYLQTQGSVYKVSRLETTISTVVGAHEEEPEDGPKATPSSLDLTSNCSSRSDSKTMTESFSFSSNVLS
In short: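 Radioligand displacement on whole IM9 human lymphoma cells (2.5×10^6 cells/mL) using [125I]Bolton-Hunter substance P (0.05-0.1 nM), 50 min at 21° C in Tris pH 7.4/MnCl2 buffer with protease inhibitors. Non-specific binding defined by […] [Sar9, Met(O2)11] substance P. Filtration, gamma counting, iterative curve fitting.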

Compound	IC50 [nM]
Cc1cc(CN[C@H](Cc2c[nH]c3ccccc23)C(=O)N[C@@H](C)c2ccccc2)oc1C (relative stereo) [Example 8, 2-[(4,5-Dimethyl-furan-2-ylmethyl)-amino]-3-(1H-indol-3-yl)-N-(1-phenyl-ethyl)-propionamide, [R-(R*,S*)]]	27
C[C@H](NC(=O)[C@@H](Cc1c[nH]c2ccccc12)NCc1ccc(Cl)s1)c1ccccc1 (relative stereo) [Example 12, 2-[(5-Chloro-thiophen-2-ylmethyl)-amino]-3-(1H-indol-3-yl)-N-(1-phenyl-ethyl)-propionamide, [R(R*,S*)]]	14

same assay, conditions: Human lymphoma IM9 cells, [125I]Bolton-Hunter substance P; Table 3, array-synthesis products; read-out: IC50 (nM) hNK1

Compound	IC50 [nM]
O=C(NCc1ccc(F)cc1)C(Cc1c[nH]c2ccccc12)NCc1cc2ccccc2o1 (stereo not shown) [Example 244, 2-[(Benzofuran-2-ylmethyl)-amino]-N-(4-fluoro-benzyl)-3-(1H-indol-3-yl)-propionamide]	12
O=C(NC1CC1c1ccccc1)C(Cc1c[nH]c2ccccc12)NCc1cc2ccccc2o1 (stereo not shown) [Example 224, 2-[(Benzofuran-2-ylmethyl)-amino]-3-(1H-indol-3-yl)-N-(2-phenyl-cyclopropyl)-propionamide]	2900
O=C(NCc1ccccc1C(F)(F)F)C(Cc1c[nH]c2ccccc12)NCc1cc2ccccc2o1 (stereo not shown) [Example 292, 2-[(Benzofuran-2-ylmethyl)-amino]-3-(1H-indol-3-yl)-N-(2-trifluoromethyl-benzyl)-propionamide]	1130
Cc1ccccc1CNC(=O)C(Cc1c[nH]c2ccccc12)NCc1cc2ccccc2o1 (stereo not shown) [Example 242, 2-[(Benzofuran-2-ylmethyl)-amino]-3-(1H-indol-3-yl)-N-(2-methyl-benzyl)-propionamide]	170
O=C(NCCN1CCCC1)C(Cc1c[nH]c2ccccc12)NCc1cc2ccccc2o1 (stereo not shown) [Example 222, 2-[(Benzofuran-2-ylmethyl)-amino]-3-(1H-indol-3-yl)-N-(2-pyrrolidin-1-yl-ethyl)-propionamide]	> 10000
O=C(NCCc1ccccc1)C(Cc1c[nH]c2ccccc12)NCc1cc2ccccc2o1 (stereo not shown) [Example 246, 2-[(Benzofuran-2-ylmethyl)-amino]-3-(1H-indol-3-yl)-N-phenethyl-propionamide]	77

same assay, conditions: Table 4; [125I]Bolton-Hunter substance P displacement, human IM9 cells; read-out: IC50 (nM) hNK1

Compound	IC50 [nM]
CC(NC(=O)C(C)(Cc1c[nH]c2ccccc12)NCc1ccco1)c1ccccc1 (stereo not shown) [compound 314, 2-[(Furan-2-ylmethyl)-amino]-3-(1H-indol-3-yl)-2-methyl-N-(1-phenyl-ethyl)-propionamide]	141
CCOC(=O)Nc1ccccc1CNC(C)(Cc1c[nH]c2ccccc12)C(=O)NC(C)c1ccccc1 (stereo not shown) [compound 329, (2-{[2-(1H-Indol-3-yl)-1-methyl-1-(1-phenyl-ethylcarbamoyl)-ethylamino]-methyl}-phenyl)-carbamic acid ethyl ester]	4190
CC=C(C)CCC=C(C)CNC(C)(Cc1c[nH]c2ccccc12)C(=O)NC(C)c1ccccc1 (stereo not shown) [compound 352, 2-(2,6-Dimethyl-octa-2,6-dienylamino)-3-(1H-indol-3-yl)-2-methyl-N-(1-phenyl-ethyl)-propionamide]	2210
3-(1H-Indol-3-yl)-2-methyl-N-(1-phenyl-ethyl)-2-[(pyridin-4-ylmethyl)-amino]-propionamide [compound 313]	50
CC(NC(=O)C(C)(Cc1c[nH]c2ccccc12)NCc1ccccc1Sc1ccc(Cl)cc1)c1ccccc1 (stereo not shown) [compound 350, 2-[2-(4-Chloro-phenylsulfanyl)-benzylamino]-3-(1H-indol-3-yl)-2-methyl-N-(1-phenyl-ethyl)-propionamide]	> 10000
CC(NC(=O)C(C)(Cc1c[nH]c2ccccc12)NCc1ccc2ccccc2c1)c1ccccc1 (stereo not shown) [compound 309, 3-(1H-Indol-3-yl)-2-methyl-2-[(naphthalen-2-ylmethyl)-amino]-N-(1-phenyl-ethyl)-propionamide]	169

same assay, conditions: Table 5; [125I]Bolton-Hunter substance P displacement, human IM9 cells; read-out: IC50 (nM) hNK1

Compound	IC50 [nM]
CC(NC(=O)C(Cc1c[nH]c2ccccc12)NCCCc1cccc2ccccc12)c1ccccc1 (stereo not shown) [compound 380]	500
CC(NC(=O)C(Cc1c[nH]c2ccccc12)NCc1cccs1)c1ccccc1 (stereo not shown) [compound 396]	1070
CC(NC(=O)C(Cc1c[nH]c2ccccc12)NCc1coc2ccccc2c1=O)c1ccccc1 (stereo not shown) [compound 371]	> 10000
CC(NC(=O)C(Cc1c[nH]c2ccccc12)NCc1ccc2c(c1)Cc1ccccc1-2)c1ccccc1 (stereo not shown) [compound 391]	846
Cc1c(-c2ccccc2)occ(CNC(Cc2c[nH]c3ccccc23)C(=O)NC(C)c2ccccc2)c1=O (stereo not shown) [compound 373]	507
CC(NC(=O)C(Cc1c[nH]c2ccccc12)NCc1ccc(C=Cc2ccccc2)o1)c1ccccc1 (stereo not shown) [compound 362]	> 10000
CC(NC(=O)C(Cc1c[nH]c2ccccc12)NCc1ccc2ccccc2c1)c1ccccc1 (stereo not shown) [compound 394]	158

same assay, conditions: human NK1 receptor, IM9 cells, [125I]Bolton-Hunter substance P; read-out: IC50 (nM) hNK1

Compound	IC50 [nM]
CN(C)c1cccc(C2(CNC(=O)C(C)(Cc3c[nH]c4ccccc34)NCc3cc4ccccc4o3)CCCC2)c1 (stereo not shown) [compound 102, 2-[(Benzofuran-2-ylmethyl)-amino]-N-[1-(3-dimethylamino-phenyl)-cyclopentylmethyl]-3-(1H-indol-3-yl)-2-methyl-propionamide]	> 10000
CC(Cc1c[nH]c2ccccc12)(NCc1cc2ccccc2o1)C(=O)NC1(c2cccs2)CCCCC1 (stereo not shown) [compound 160, 2-[(Benzofuran-2-ylmethyl)-amino]-3-(1H-indol-3-yl)-2-methyl-N-(1-thiophen-2-yl-cyclohexyl)-propionamide]	> 10000
Cc1cc(C)c(CNC(=O)C(C)(Cc2c[nH]c3ccccc23)NCc2cc3ccccc3o2)cn1 (stereo not shown) [compound 169, 2-[(Benzofuran-2-ylmethyl)-amino]-N-(4,6-dimethyl-pyridin-3-ylmethyl)-3-(1H-indol-3-yl)-2-methyl-propionamide]	6020
CC(Cc1c[nH]c2ccccc12)(NCc1cc2ccccc2o1)C(=O)NCc1ccccn1 (stereo not shown) [compound 23, 2-[(Benzofuran-2-ylmethyl)-amino]-3 (1H-indol-3-yl)-2-methyl-N-pyridin-2 ylmethyl-propionamide]	1280
CC(Cc1c[nH]c2ccccc12)(NCc1cc2ccccc2o1)C(=O)NCC1Cc2ccccc2CN1 (stereo not shown) [compound 108, 2-[(Benzofuran-2-ylmethyl)-amino]-3-(1H-indol-3-yl)-2-methyl-N-(1,2,3,4-tetrahydro-isoquinolin-3-ylmethyl)-propionamide]	4570
Cc1ccccc1CNC(=O)C(C)(Cc1c[nH]c2ccccc12)NCc1cc2ccccc2o1 (stereo not shown) [compound 157, 2-[(Benzofuran-2-ylmethyl)-amino]-3-(1H-indol-3-yl)-2-methyl-N-(2-methyl-benzyl)-propionamide]	455
CC(Cc1c[nH]c2ccccc12)(NCc1cc2ccccc2o1)C(=O)NCc1cccc(C(F)(F)F)c1 (stereo not shown) [compound 74, 2-[(Benzofuran-2-ylmethyl)-amino]-3-(1H-indol-3-yl)-2-methyl-N-(3-trifluoromethyl-benzyl)-propionamide]	12
CC(Cc1c[nH]c2ccccc12)(NCc1cc2ccccc2o1)C(=O)NCCN1CCC2CCCCC21 (stereo not shown) [compound 123, 2-[(Benzofuran-2-ylmethyl)-amino]-3-(1H-indol-3-yl)-2-methyl-N-[2-(octahydro-indol-1-yl)-ethyl]-propionamide]	> 10000
CC(Cc1c[nH]c2ccccc12)(NCc1cc2ccccc2o1)C(=O)NCc1cccc(OC(F)(F)F)c1 (stereo not shown) [compound 59, 2-[(Benzofuran-2-ylmethyl)-amino]-3-(1H-indol-3-yl)-2-methyl-N-(3-trifluoromethoxy-benzyl)-propionamide]	> 10000
CC(CNC(=O)C(C)(Cc1c[nH]c2ccccc12)NCc1cc2ccccc2o1)c1ccccc1 (stereo not shown) [compound 140, 2-[(Benzofuran-2-ylmethyl)-amino]-3-(1H-indol-3-yl)-2-methyl-N-(2-phenyl-propyl)-propionamide]	> 10000
CC(Cc1c[nH]c2ccccc12)(NCc1cc2ccccc2o1)C(=O)NCc1ccc([N+](=O)[O-])cc1 (stereo not shown) [compound 119, 2-[(Benzofuran-2-ylmethyl)-amino]-3-(1H-indol-3-yl)-2-methyl-N-(4-nitro-benzyl)-propionamide]	89
CC1CCCC(C)N1CCCCNC(=O)C(C)(Cc1c[nH]c2ccccc12)NCc1cc2ccccc2o1 (stereo not shown) [compound 88, 2-[(Benzofuran-2-ylmethyl)-amino]-N-[4-(2,6-dimethyl-piperidin-1-yl)-butyl]-3-(1H-indol-3-yl)-2-methyl-propionamide]	> 10000
CC(Cc1c[nH]c2ccccc12)(NCc1cc2ccccc2o1)C(=O)NC1CCc2ccccc2C1 (stereo not shown) [compound 111, 2-[(Benzofuran-2-ylmethyl)-amino]-3-(1H-indol-3-yl)-2-methyl-N-(1,2,3,4-tetrahydro-naphthalen-2-yl)-propionamide]	> 10000
CC(Cc1c[nH]c2ccccc12)(NCc1cc2ccccc2o1)C(=O)NCc1ccc(O)c(O)c1 (stereo not shown) [compound 182, 2-[(Benzofuran-2-ylmethyl)-amino]-N-(3,4-dihydroxy-benzyl)-3-(1H-indol-3-yl)-2-methyl-propionamide]	> 10000
CC(Cc1c[nH]c2ccccc12)(NCc1cc2ccccc2o1)C(=O)NCc1ccc(F)cc1F (stereo not shown) [compound 181, 2-[(Benzofuran-2-ylmethyl)-amino]-N-(2,4-difluoro-benzyl)-3-(1H-indol-3-yl)-2-methyl-propionamide]	269
CC(Cc1c[nH]c2ccccc12)(NCc1cc2ccccc2o1)C(=O)NCc1ccc(Cl)cc1Cl (stereo not shown) [compound 46, 2-[(Benzofuran-2-ylmethyl)-amino]-N-(2,4-dichloro-benzyl)-3-(1H-indol-3-yl)-2-methyl-propionamide]	1560
